Laboratory results taken from patent US20230374103A1, “Wnt SIGNALING PATHWAY INHIBITOR” (OSAKA UNIVERSITY, priority 2020, published 2023).
Residues, ends and D or L forms follow the SMILES beside them.

How the values were obtained:
[1] = system: bleomycin-induced scleroderma model; assay: Early administration test in bleomycin-induced scleroderma model; assay type: in vivo, C57BL6/J mice; settings: 800 μg/mouse i.p. 5 days/week for 14 days in parallel with bleomycin
Experimental: As test animals, C57BL6/J mice (female, 8 weeks old) were prepared. 200 μg/mouse of bleomycin was subcutaneously injected at a frequency of 5 days/week for 14 days, and in parallel with this, 800 μg/mouse of saline or RANKL peptide was intraperitoneally administered at a frequency of 5 days/week for 14 days. The body weight was measured periodically during the dosing period. The mice were sacrificed 14 days after the start of administration and the skin tissue of the bleomycin-administered portion was stained with Masson's trichrome to evaluate fibrosis. Further, the expression of collagen gene mRNA, which is a fibrosis index, in the skin was evaluated.

[2] = system: bleomycin-induced scleroderma model; assay: Late administration test in bleomycin-induced scleroderma model; assay type: in vivo, C57BL6/J mice; settings: 800 μg/mouse i.p. 5 days/week for 14 days after 14 days of bleomycin
Experimental: As test animals, C57BL6/J mice (female, 8 weeks were prepared. 200 μg/mouse of bleomycin was subcutaneously injected at a frequency of 5 days/week for 14 days. Subsequently, 800 μg/mouse of saline or RANKL peptide was intraperitoneally administered at a frequency of 5 days/week for 14 days. The nice were sacrificed after 14 days (28 days after the start of bleomycin administration), and the skin tissue of the bleomycin-administered portion was stained with Masson's trichrome to evaluate fibrosis. Further, the expression of collagen gene mRNA, which is a fibrosis index, in the skin was evaluated.

A549 cells [3] = assay: Migration/invasion assay of A549 cells (Boyden chamber / Matrigel Invasion chamber); assay type: cell-based, human
Experimental: The influence of RANKL peptide on the migration and invasion of A549 cells was examined. Specifically, the following procedure was performed. A chamber of an 8-μm polycarbonate membrane filter (Neuro Probe) was installed in the upper compartment of a Boyden chamber (48-well Chamber, Neuro Probe), A549 cells were seeded in serum-free DMEM containing MHP1-AcN, and DMEM containing 10% FBS was placed in the lower compartment, followed by incubation at 37° C. for 15 hours. In the invasion assay, the upper compartment was Matrigel Invasion chamber (Corning Life Science). Similar A549 cells were seeded in serum-free medium containing MHP1-AcN, and DEM containing 10% FBS was placed in the lower compartment. Cells adhering to the upper surface of each upper compartment were detached, the lower surface was stained with Diff-Quick (Sysmex), and the number of cells was counted under a microscope.

A549 cells [4] = assay: Proliferation assay (MTT) of A549 cells; assay type: cell-based, human
Experimental: The influence RANKL peptide on the proliferation of A549 cells (human lung alveolar basal epithelial cells: high expression of both LGR4 and RSPO3 was confirmed) was examined. Specifically, the following procedure was performed. MHP1 was administered at 1 ng/ml to 100 μg/ml to A549 cells, and the cell viability was calculated by MTT assay after 40 hours.

[5] = system: Wnt signaling activation by RSPO; assay: Wnt signaling inhibition test (β-catenin responsive element luciferase reporter); assay type: cell-based; settings: HEK293 reporter cells; 50 ng/mL wnt3a + 20 ng/mL RSPO1/2/3; 24 hours; peptide tested MHP1-7 (FIG. 2)
Experimental: HEK293 cells expressing luciferase under the control of β-catenin responsive element were plated on a 96 -well plastic plate (1×10^4 cells/well) and incubated in the presence or absence of 50 ng/mL of recombinant mouse wnt3a (R&D System, #1324-WN) and recombinant human RSPO1 (R&D System, #4645-RS), recombinant human RSPO2 (PeproTech, #120-43), or recombinant human RSPO3 (PeproTech, #120-44). When these were added at the same time as RANKL peptide, 50 ng/mL of recombinant mouse wnt3a and 20 ng/mL of RSPO1/2/3 were used. After incubation for 24 hours, luciferase activity was analyzed using a luciferase assay system (Promega) and a microplate luminometer (Centro XS3 LB960; Berthold Technologies). The protein concentration of each sample was measured using Takara Bradford Protein Assay Kit (Takara Bio Inc.). The results of luciferase activity were normalized to the protein concentration of each sample.

binding of LGR4 to RSPO1 = biological target: T1, binding of LGR4 to RSPO1 (Homo sapiens, UniProt Q9BXB1); assay: Competitive binding analysis of LGR4 and biotinylated RSPO1 (Flag-LGR4 transfected HEK293 cells, immunoprecipitation); settings: 50 ng/mL biotinylated RSPO1, 2 hours, MHP1-7 (FIG. 4)
T1 construct: host or cells: HEK293
T1 sequence (Q9BXB1 25-951): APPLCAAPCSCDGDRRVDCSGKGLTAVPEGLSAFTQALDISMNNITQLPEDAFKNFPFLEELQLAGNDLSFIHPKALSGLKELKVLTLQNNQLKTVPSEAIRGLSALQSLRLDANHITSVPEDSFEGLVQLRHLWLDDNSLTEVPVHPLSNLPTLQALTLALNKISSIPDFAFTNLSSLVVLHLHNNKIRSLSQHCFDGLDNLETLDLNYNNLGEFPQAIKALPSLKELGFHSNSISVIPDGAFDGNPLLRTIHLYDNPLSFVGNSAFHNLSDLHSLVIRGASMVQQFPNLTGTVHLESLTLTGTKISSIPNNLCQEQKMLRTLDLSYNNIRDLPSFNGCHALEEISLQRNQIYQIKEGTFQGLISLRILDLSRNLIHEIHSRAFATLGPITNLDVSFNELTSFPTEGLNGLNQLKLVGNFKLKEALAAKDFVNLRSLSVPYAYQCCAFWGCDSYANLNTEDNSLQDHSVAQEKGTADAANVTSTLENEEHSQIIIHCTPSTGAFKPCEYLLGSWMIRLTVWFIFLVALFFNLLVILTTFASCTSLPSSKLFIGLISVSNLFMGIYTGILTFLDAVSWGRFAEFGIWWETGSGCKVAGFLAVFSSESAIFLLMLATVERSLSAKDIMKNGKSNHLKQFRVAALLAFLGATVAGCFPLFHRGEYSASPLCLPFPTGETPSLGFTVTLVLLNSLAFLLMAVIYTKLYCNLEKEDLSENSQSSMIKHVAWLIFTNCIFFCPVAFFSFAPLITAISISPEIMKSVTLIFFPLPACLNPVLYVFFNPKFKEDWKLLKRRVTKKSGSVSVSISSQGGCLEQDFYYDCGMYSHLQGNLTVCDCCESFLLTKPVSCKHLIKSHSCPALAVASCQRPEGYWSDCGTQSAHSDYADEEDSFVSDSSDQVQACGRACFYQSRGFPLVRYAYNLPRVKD
Experimental: HEK293 cells were incubated with 100 μg/mL of RANKL peptide or biotinylated RANKL peptide for 30 minutes, followed by immunoprecipitation. For competitive binding analysis, HEK293 cells were transfected with a Flag-tagged LGR4 expression plasmid (OriGene Technologies) for 48 hours, and incubated for 2 hours in the presence of 50 ng/mL L of recombinant human biotinylated RSPO1 (R&D System, #BT4645) and RANKL peptide. For immunoprecipitation, the cells were washed twice with cold PBS and dissolved in a lysis buffer (50 mM Tris-HCL, pH 7.4, 150 mM NaCl, 5 mM EDTA, 0.5% NP40, 10% glycerol and protease inhibitor cocktail (Roche)). The sample was centrifuged at 16,000 g for 10 minutes. The supernatant was collected, and the protein concentration was determined. Immunoprecipitation from samples containing equal amounts of protein was performed at 4° C. overnight using high-capacity streptavidin agarose (Thermo Fisher Scientific or Anti-FLAG M2 Affinity Gel (Sigma-Aldrich), followed by washing twice with a lysis buffer, and elution with 2× Laemmli Sample Buffer at 37° C. for 30 minutes before Western blotting. The blotted membrane was incubated with the primary antibody at 4° C. overnight, washed with TBS containing 0.1% Tween-20, then incubated with the HRP-conjugated secondary antibody at room temperature for 1 hour, and then incubated with Chemi-Lumi One L (Nacalai Tesque). […]

smad2/3 = smad2/3 activation induced by TGF-β in MRC-5 cells (WB); assay type: cell-based; settings: 24 hours pretreatment, 5 ng/ml TGFβ, 10 minutes, MHP1-AcN (FIG. 17)
Experimental: The influence of RANEL peptide on smad2/3 activation induced by TGF-β was examined. Specifically, the following procedure was performed. After pretreatment of MRC-5 cells with MHP1 for 24 hours, 5 ng/ml of TGFβ was added to the medium, the medium was collected after 10 minutes, and WB was performed.

[6] = system: α-SMA and Colla1 expression (EMT); assay: Expression of α-SMA and Colla1 induced by TGF-β in MRC-5 cells (real-time RT-PCR); assay type: cell-based
Experimental: The influence of RANKL peptide on the expression of α-SMA and Colla1 induced by TGF-β was examined. Specifically, the following procedure was performed. After pretreatment of MHP1 with MRC-5 cells for 24 hours, 2 ng/m/ of TGFβ was added, the cells were collected after 24 hours, and mRNA levels were determined by real-time RT-PCR.

[7] = system: bleomycin-induced pulmonary fibrosis model; assay: Administration test in bleomycin-induced pulmonary fibrosis model; assay type: in vivo, C57BL6/J mice; settings: 800 μg/mouse i.p. once, bleomycin intratracheally, 14 days
Experimental: As test animals, C57BL6/J mice (female, 8 weeks old) were prepared. Saline or RANKL peptide (800 μg/mouse) was administered intraperitoneally, and immediately thereafter, saline or bleomycin (0.05 μg/mouse) was directly administered intratracheally. The mice were sacrificed 14 days after administration, the lung weight and body weight were measured, and the lung weight/body weight ratio was determined. In addition, the lung tissue, was stained with Masson's trichrome, and Masson's trichrome score evaluation (0: normal, 1: fibrotic lesions predominantly at the margin of the lung, 2: marginal or global multifocal fibrotic lesions, 3: fibrotic lesions in approximately ⅓ of the area, 4: fibrotic lesions accounting for ⅔ or more of the area) was performed based on the stained images. Further, the expression of fibrosis marker gene mRNA in lung tissue was evaluated.

A549 cell xenograft = A549 cell xenograft model; assay type: in vivo, BALB/cAJcl-nu/nu; settings: 600 μg/mouse every day, up to 49 days
Experimental: The influence of RANKL peptide on cancer in an A549 cell xenograft model was examined. Specifically, the following procedure was performed. 2×10^6 cells were administered subcutaneously to BALB/cAJcl-nu/nu […]. After one day, 600 μg/mouse of MHP1 was administered every day, and the tumor size was measured up to 49 days. Further, the tumor weight was measured.

[8] = MRC-5 cells, 24 hours pretreatment, TGFβ 24 hours, 10, 30, 100 μg/ml MHP1-AcN (FIG. 19)

- Wnt signaling activation by RSPO (luciferase activity normalized to protein concentration) [5]: inhibited
- RSPO1 in the total cell lysate and the lysate immunoprecipitated with FLAG (Streptavidin-HRP) (binding of LGR4 to RSPO1): reduced
- binding of LGR4 to RSPO1 (binding of LGR4 to RSPO1): inhibits
- influence on the degree of weight gain (A549 cell xenograft): not confirmed
Structure (SMILES): CC[C@H](C)[C@H](NC(=O)[C@H](CO)NC(=O)[C@@H](NC(=O)[C@H](CCCCN)NC(=O)[C@@H](NC(=O)[C@@H](NC(=O)[C@H](Cc1ccc(O)cc1)NC(=O)[C@@H](NC(=O)[C@H](CCSC)NC(=O)[C@H](CC(C)C)NC(C)=O)C(C)C)C(C)C)C(C)C)[C@@H](C)O)C(=O)N[C@@H](CCCCN)C(=O)N[C@H](C(=O)N1CCC[C@H]1C(=O)N[C@@H](CO)C(=O)N[C@@H](CO)C(=O)N[C@@H](Cc1c[nH]cn1)C(=O)N[C@@H](CC(N)=O)C(=O)N[C@@H](CC(C)C)C(=O)N[C@@H](CCSC)C(=O)N[C@@H](CCCCN)C(=O)NCC(=O)NCC(=O)N[C@@H](CO)C(=O)N[C@H](C(=O)N[C@@H](CCCCN)C(=O)N[C@@H](CC(N)=O)C(=O)N[C@@H](Cc1c[nH]c2ccccc12)C(=O)N[C@@H](CO)C(=O)NCC(=O)N[C@@H](CC(N)=O)C(N)=O)[C@@H](C)O)[C@@H](C)CC [MHP1-7] (Ac-LMVYVVKTSIKIPSSHNLMKGGSTKNWSGN-NH2)
- skin thickening and fibrosis (Masson's trichrome, dermis thickness) ([1]; MHP1-7 (FIG. 5)): inhibited
- expression of the collagen gene mRNA in skin ([1]; MHP1-7 (FIG. 6)): inhibited
- weight loss (body weight) ([1]; MHP1-7 (FIG. 7)): suppressed
- skin thickening and fibrosis (Masson's trichrome, dermis thickness) ([2]; MHP1-7 (FIG. 8)): inhibited
- expression of the collagen gene mRNA (Colla1, Colla2) in skin ([2]; MHP1-7 (FIGS. 9, 10)): inhibited
- migration of lung cancer cells (number of cells) (A549 cells [3]; A549 cells, Boyden chamber, 15 hours, MHP1-AcN (FIG. 15)): inhibited
- invasion of lung cancer cells (number of cells) (A549 cells [3]; A549 cells, Matrigel Invasion chamber, MHP1-AcN (FIG. 15)): inhibited
- Wnt signaling pathway in A549 cells (A549 cells [3]; migration/invasion test): inhibited
- proliferation of lung cancer cells (cell viability, MTT) (A549 cells [4]; A549 cells, 1 ng/ml to 100 μg/ml, 40 hours, MHP1-AcN (FIG. 14)): inhibited
- Wnt signaling pathway in A549 cells (A549 cells [4]; along with the inhibition of the proliferation): inhibited
- smad2/3 activation induced by TGF-β (smad2/3): inhibited
- expression of Colla1 induced by TGF-β [6, 8]: inhibited
- expression of α-SMA (ACTA2) induced by TGF-β [6, 8]: inhibited
- EMT (epithelial-mesenchymal transition) ([6]; concluded from α-SMA and Colla1 expression in MRC-5 cells): inhibited
- lung weight gain ([7]; MHP1-7 (FIG. 11)): suppressed
- weight loss (body weight) ([7]; MHP1-7 (FIG. 11)): suppressed
- expression of the fibrosis marker gene mRNA in lung tissue ([7]; MHP1-7 (FIG. 12)): inhibited
- lung tissue fibrosis (Masson's trichrome score) ([7]; MHP1-7 (FIG. 13)): inhibited
- growth of cancer (tumor volume) (A549 cell xenograft; MHP1-AcN (FIG. 16)): inhibited
